{"source": "ChEMBL document CHEMBL1129899", "about": "“Synthesis of CD-ring modified 1,25-dihydroxy vitamin D analogues: Five-membered D-ring analogues” (1997)", "key": {"[1]": {"system": "Mus musculus", "test": "In vivo calcemic effect was tested in vitamin D replete normal […] mice by measuring calcium levels in serum", "format": "functional", "set-up": "reference not given here"}, "[2]": {"molecular_target": "T1, Vitamin D3 receptor (Sus scrofa) (UniProt A3RGC1)", "T1 sequence (whole entry)": "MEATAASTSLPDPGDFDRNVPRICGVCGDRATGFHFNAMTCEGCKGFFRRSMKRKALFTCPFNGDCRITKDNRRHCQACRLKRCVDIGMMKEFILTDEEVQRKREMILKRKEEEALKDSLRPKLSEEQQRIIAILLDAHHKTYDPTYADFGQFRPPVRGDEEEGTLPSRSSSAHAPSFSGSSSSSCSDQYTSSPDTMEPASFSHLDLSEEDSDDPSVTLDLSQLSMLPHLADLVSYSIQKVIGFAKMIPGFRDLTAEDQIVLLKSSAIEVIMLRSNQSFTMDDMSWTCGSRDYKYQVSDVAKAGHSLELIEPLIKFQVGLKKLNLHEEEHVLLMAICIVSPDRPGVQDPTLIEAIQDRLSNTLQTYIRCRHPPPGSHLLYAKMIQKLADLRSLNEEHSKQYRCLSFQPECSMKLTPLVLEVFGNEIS", "test": "Affinity for pig intestinal mucosa Vitamin D3 receptor (VDR)", "format": "tissue-based"}, "[3]": {"molecular_target": "T2, Vitamin D3 receptor (Homo sapiens) (UniProt P11473)", "T2 sequence (whole entry)": "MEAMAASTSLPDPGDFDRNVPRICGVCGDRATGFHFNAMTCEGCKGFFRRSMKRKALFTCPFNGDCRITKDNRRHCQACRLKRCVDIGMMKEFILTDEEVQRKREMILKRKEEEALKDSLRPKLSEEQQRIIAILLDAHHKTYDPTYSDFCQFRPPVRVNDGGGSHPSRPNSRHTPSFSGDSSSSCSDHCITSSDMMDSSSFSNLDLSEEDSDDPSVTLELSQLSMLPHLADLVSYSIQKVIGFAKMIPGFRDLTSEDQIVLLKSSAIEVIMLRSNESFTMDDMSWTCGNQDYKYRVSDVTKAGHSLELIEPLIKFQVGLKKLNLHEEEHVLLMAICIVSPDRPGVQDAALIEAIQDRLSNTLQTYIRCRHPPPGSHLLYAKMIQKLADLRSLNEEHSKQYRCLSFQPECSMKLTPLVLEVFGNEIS", "test": "Relative affinity compared to Calcitriol in displacement of [3H]1H]1-alpha,25(OH)2D3 from Vitamin D3 receptor in HL-60 cells", "format": "functional, cell-based"}, "[4]": {"system": "keratinocytes (Homo sapiens)", "test": "Antiproliferative activity relative to Calcitriol in Keratinocyte cell lines"}, "[5]": {"molecular_target": "T2, Vitamin D3 receptor (Homo sapiens)", "test": "Relative affinity compared to Calcitriol in displacement of [3H]1H]1-alpha,25(OH)2D3 from vitamin D3 receptor in […] cells", "format": "cell-based"}, "[6]": {"molecular_target": "T2, Vitamin D3 receptor (Homo sapiens)", "test": "Relative affinity compared to Calcitriol in displacement of [3H]1H]1-alpha,25(OH)2D3 from vitamin D receptor (VDR) in MG-63 cells", "format": "functional, cell-based"}}, "data": [{"smiles": "C=C1/C(=C/C=C/[C@@H]2CC[C@H]([C@@H](C)CC#CC(C)(C)O)C2(C)C)C[C@@H](O)C[C@@H]1O", "values": [{"measurement": "Activity", "setting": "[1]", "result": 0.5}, {"measurement": "Activity", "setting": "[2]", "result": 40}, {"measurement": "Activity", "setting": "[3]", "result": 100, "unit": "%"}, {"measurement": "Activity", "setting": "[4]", "result": 200, "unit": "%"}, {"measurement": "Activity", "setting": "[5]", "result": 150, "unit": "%"}, {"measurement": "Activity", "setting": "[6]", "result": 10, "unit": "%"}]}, {"smiles": "C=C1/C(=C/C=C/[C@@H]2CC[C@H]([C@H](C)CCCC(C)(C)O)[C@@]2(C)CCC)C[C@@H](O)C[C@@H]1O", "values": [{"measurement": "Activity", "setting": "[1]", "result": 1}, {"measurement": "Activity", "setting": "[2]", "result": 80}, {"measurement": "Activity", "setting": "[3]", "result": 10, "unit": "%"}, {"measurement": "Activity", "setting": "[4]", "result": 85, "unit": "%"}, {"measurement": "Activity", "setting": "[5]", "result": 1, "unit": "%"}, {"measurement": "Activity", "setting": "[6]", "result": 8, "unit": "%"}]}, {"smiles": "C=C1/C(=C/C=C/[C@@H]2CC[C@H]([C@@H](C)CCCC(C)(C)O)C2(C)C)C[C@@H](O)C[C@@H]1O", "values": [{"measurement": "Activity", "setting": "[1]", "result": 3}, {"measurement": "Activity", "setting": "[2]", "result": 70}, {"measurement": "Activity", "setting": "[3]", "result": 100, "unit": "%"}, {"measurement": "Activity", "setting": "[4]", "result": 100, "unit": "%"}, {"measurement": "Activity", "setting": "[5]", "result": 85, "unit": "%"}, {"measurement": "Activity", "setting": "[6]", "result": 10, "unit": "%"}]}, {"smiles": "C=C1/C(=C/C=C/[C@@H]2CC[C@H]([C@H](C)CCCC(C)(C)O)C2(C)C)C[C@@H](O)C[C@@H]1O", "values": [{"measurement": "Activity", "setting": "[1]", "result": 0.3}, {"measurement": "Activity", "setting": "[2]", "result": 80}, {"measurement": "Activity", "setting": "[3]", "result": 85, "unit": "%"}, {"measurement": "Activity", "setting": "[4]", "result": 90, "unit": "%"}, {"measurement": "Activity", "setting": "[5]", "result": 85, "unit": "%"}, {"measurement": "Activity", "setting": "[6]", "result": 30, "unit": "%"}]}, {"smiles": "C=C1/C(=C/C=C/[C@@H]2CC[C@H]([C@H](C)CC#CC(C)(C)O)C2(C)C)C[C@@H](O)C[C@@H]1O", "values": [{"measurement": "Activity", "setting": "[1]", "result": 0.25}, {"measurement": "Activity", "setting": "[2]", "result": 40}, {"measurement": "Activity", "setting": "[3]", "result": 100, "unit": "%"}, {"measurement": "Activity", "setting": "[5]", "result": 200, "unit": "%"}]}]}
